How the values were obtained:
[1] = tested on: N2a-pcDNA3 cells; test: Binding/endocytosis of FAM-Aβ42, confocal microscopy; assay type: cell-based, mouse; conditions: 5 µM bound 1 h at 4°C, 37°C for 8 h
From the text: To test whether the endocytic activity of LRP1 mediates the uptake of Aβ42 and its accumulation within neurons, we analyzed the uptake of fluorescently labeled Aβ42 in control N2a cells and in N2a cells that overexpress a LRP1 minireceptor, mLRP4. This minireceptor contains the fourth ligand-binding domain of LRP1 and is capable of binding several LRP1 ligands with endocytic properties identical to the full-length LRP1 [35]. We generated stable N2a-mLRP4 and N2a-pcDNA3 cell lines and characterized them for total mLRP4 expression levels by Western blot and FACS (Fig. 1). […] To determine if mLRP4 reached the plasma membrane after synthesis, we analyzed cell surface levels of mLRP4 by FACS in non-permeabilized cells. […] To quantify the amount of internalized RAP, we performed FACS analysis of similarly treated cultures. […] Cells were then warmed to 37°C for different periods of time to allow ligand internalization, and analyzed by confocal microscopy as described in the Experimental Procedures section. […]
Figure 1 LRP1 minireceptor increases the uptake of Aβ42 in N2a-mLRP4 cells. A, cell lysates from N2a cells stably expressing LRP1 minireceptor (N2a-mLRP4) or empty pcDNA3 vector (N2a-pcDNA3) were analyzed by 7.5% SDS-PAGE and Western blotted with anti-HA or anti-LRP1 antibodies. […]

[2] = tested on: MEF cells; test: FAM-Aβ42 internalization in wild-type (MEF1) and LRP1 knockout (MEF2) fibroblasts, FACS; assay type: cell-based, mouse; conditions: 500 nM FAM-Aβ42, 37°C, 4 h, n = 3, p<0.01
Description: To rule out cell type-specific effects and artifacts due to the expression of LRP1 minireceptor, we performed similar FAM-Aβ42 uptake experiments in GT1-7 neuronal cells with reduced endogenous LRP1 levels by siRNA knockdown (Fig. 3A), and in mouse embryonic fibroblasts from both wild-type (MEF1) and LRP1 knockout mice (MEF2) (Fig. 3B). GT1-7 cells were plated and treated as indicated in the Experimental Procedures and GT1-7 and MEF cells were incubated with 500 nM of FAM-Aβ42 at 37°C for 4 h. Steady-state levels of intracellular Aβ42 were determined by flow cytometric analysis of pronase-treated cells. […]
Figure 3 LRP1 mediates internalization and accumulation of Aβ42 in GT1-7 and MEF cells. […] After 72 h, cells were treated with 500 nM FAM-Aβ42 for 4 h and intracellular Aβ42 was determined by flow cytometric analyses of pronase-treated cells as described in the Experimental Procedures. […] Wild type (MEF1) and LRP1 knockout (MEF2) fibroblasts were treated with 500 nM FAM-Aβ42 for 4 h, and intracellular Aβ42 was determined by flow cytometric analyses. ** p<0.01, t-test. n = 3. C, cell lysates from GT1-7 and MEF cells treated as in A and B, analyzed by 7.5% SDS-PAGE, and Western blotted with anti-LRP1 antibodies.
For quantification of Aβ uptake experiments, stable N2a cells were plated into 12-well plates at 16,250 cells/cm^2 and grown overnight. […]

FAM-Aβ42: FAM-Aβ42 peptide (23526) from Anaspec; amyloid-β 42 with carboxyfluorescein at the N-terminal region
Aβ42 accumulated after 8 h of warming [1]: small amount
internalization of FAM-Aβ42 in MEF2 (LRP1 knockout) compared to MEF1 (wild type) [2]: decrease

Reference: paper PMC2912373, “Low-Density Lipoprotein Receptor-Related Protein 1 (LRP1) Mediates Neuronal Aβ42 Uptake and Lysosomal Trafficking” (PLoS ONE, 2010)
